# In patent publication US9181273B2, “Morpholine-spirocyclic piperidine amides as modulators of ion channels” (Vertex Pharmaceuticals Incorporated, priority 2011, dated 2015):
# Target: human NaV subtype, like NaV 1.7 (Homo sapiens, UniProt Q15858)
# Experiment: E-VIPR optical membrane potential assay with electrical stimulation
# Type: cell-based
# Conditions: active against one or more sodium channels; assay and NaV subtype not specified for Table 3; read-out: IC50 Binned Activity Data
# Description: Sodium channels are voltage-dependent proteins that can be activated by inducing membrane voltage changes by applying electric fields. […] The instrument comprises a microtiter plate handler, an optical system for exciting the coumarin dye while simultaneously recording the coumarin and oxonol emissions, a waveform generator, a current- or voltage-controlled amplifier, and a device for inserting electrodes in well. Under integrated computer control, this instrument passes user-programmed electrical stimulus protocols to cells within the wells of the microtiter plate.
# 24 hours before the assay on E-VIPR, HEK cells expressing human NaV subtype, like NaV 1.7, are seeded in 384-well poly-lysine coated plates at 15,000-20,000 cells per well. Other subtypes are performed in an analogous mode in a cell line expressing the NaV of interest. […] Cells are grown in vented cap flasks, in 90% humidity and 10% CO2, to 100% confluence. They are usually split by trypsinization 1:10 or 1:20, depending on scheduling needs, and grown for 2-3 days before the next split.
# To make the solution Add volume of 10% Pluronic F127 stock equal to volumes of CC2-DMPE+DiSBAC6(3). The order of preparation is first mix Pluronic and CC2-DMPE, then add DiSBAC6(3) while vortexing, then add Bath1+β-Cyclodextrin.
# 1) Pre-spot compounds (in neat DMSO) into compound plates. […] Final compound plate volume will be 80 μL (80-fold intermediate dilution from 1 μL DMSO spot; 160-fold final dilution after transfer to cell plate).
# 2) Prepare Hexyl Dye Solution.
# 3) Prepare cell plates. On the day of the assay, medium is aspirated and cells are washed three times with 100 μL of Bath1 Solution, maintaining 25 μL residual volume in each well.
# 4) Dispense 25 μL per well of Hexyl Dye Solution into cell plates. Incubate for 20-35 minutes at room temp or ambient conditions.
# 5) Dispense 80 μL per well of Bath1 into compound plates. Acid Yellow-17 (1 mM) is added and Potassium Chloride can be altered from 4.5 to 20 mM depending on the NaV subtype and assay sensitivity.
# 6) Wash cell plates three times with 100 μL per well of Bath1, leaving 25 μL of residual volume. Then transfer 25 uL per well from Compound Plates to Cell Plates. Incubate for 20-35 minutes at room temp/ambient condition
# 7) Read Plate on E-VIPR. Use the current-controlled amplifier to deliver stimulation wave pulses for typically 9 seconds and a scan rate of 400 Hz. A pre-stimulus recording is performed for 0.5 seconds to obtain the un-stimulated intensities baseline. The stimulatory waveform is applied for 9 seconds followed by 0.5 seconds of post-stimulation recording to examine the relaxation to the resting state. The stimulatory waveform of the electrical stimulation is specific for each cell type and can vary the magnitude, duration and frequency of the applied current to provide an optimal assay signal.
# Data are analyzed and reported as normalized ratios of background-subtracted emission intensities measured in the 460 nm and 580 nm channels. Background intensities are then subtracted from each assay channel. Background intensities are obtained by measuring the emission intensities during the same time periods from identically treated assay wells in which there are no cells. The response as a function of time is then reported as the ratios obtained using the following formula: […]
# The data is further reduced by calculating the initial (Ri) and final (Rf) ratios. These are the average ratio values during part or all of the pre-stimulation period, and during sample points during the stimulation period. The response to the stimulus R=Rf/Ri is then calculated and reported as a function of time.
# Control responses are obtained by performing assays in the presence of a compound with the desired properties (positive control), such as tetracaine, and in the absence of pharmacological agents (negative control). Responses to the negative (N) and positive (P) controls are calculated as above. The compound antagonist activity A is defined as: […]
# Chain of human NaV subtype, like NaV 1.7 (Q15858 whole entry): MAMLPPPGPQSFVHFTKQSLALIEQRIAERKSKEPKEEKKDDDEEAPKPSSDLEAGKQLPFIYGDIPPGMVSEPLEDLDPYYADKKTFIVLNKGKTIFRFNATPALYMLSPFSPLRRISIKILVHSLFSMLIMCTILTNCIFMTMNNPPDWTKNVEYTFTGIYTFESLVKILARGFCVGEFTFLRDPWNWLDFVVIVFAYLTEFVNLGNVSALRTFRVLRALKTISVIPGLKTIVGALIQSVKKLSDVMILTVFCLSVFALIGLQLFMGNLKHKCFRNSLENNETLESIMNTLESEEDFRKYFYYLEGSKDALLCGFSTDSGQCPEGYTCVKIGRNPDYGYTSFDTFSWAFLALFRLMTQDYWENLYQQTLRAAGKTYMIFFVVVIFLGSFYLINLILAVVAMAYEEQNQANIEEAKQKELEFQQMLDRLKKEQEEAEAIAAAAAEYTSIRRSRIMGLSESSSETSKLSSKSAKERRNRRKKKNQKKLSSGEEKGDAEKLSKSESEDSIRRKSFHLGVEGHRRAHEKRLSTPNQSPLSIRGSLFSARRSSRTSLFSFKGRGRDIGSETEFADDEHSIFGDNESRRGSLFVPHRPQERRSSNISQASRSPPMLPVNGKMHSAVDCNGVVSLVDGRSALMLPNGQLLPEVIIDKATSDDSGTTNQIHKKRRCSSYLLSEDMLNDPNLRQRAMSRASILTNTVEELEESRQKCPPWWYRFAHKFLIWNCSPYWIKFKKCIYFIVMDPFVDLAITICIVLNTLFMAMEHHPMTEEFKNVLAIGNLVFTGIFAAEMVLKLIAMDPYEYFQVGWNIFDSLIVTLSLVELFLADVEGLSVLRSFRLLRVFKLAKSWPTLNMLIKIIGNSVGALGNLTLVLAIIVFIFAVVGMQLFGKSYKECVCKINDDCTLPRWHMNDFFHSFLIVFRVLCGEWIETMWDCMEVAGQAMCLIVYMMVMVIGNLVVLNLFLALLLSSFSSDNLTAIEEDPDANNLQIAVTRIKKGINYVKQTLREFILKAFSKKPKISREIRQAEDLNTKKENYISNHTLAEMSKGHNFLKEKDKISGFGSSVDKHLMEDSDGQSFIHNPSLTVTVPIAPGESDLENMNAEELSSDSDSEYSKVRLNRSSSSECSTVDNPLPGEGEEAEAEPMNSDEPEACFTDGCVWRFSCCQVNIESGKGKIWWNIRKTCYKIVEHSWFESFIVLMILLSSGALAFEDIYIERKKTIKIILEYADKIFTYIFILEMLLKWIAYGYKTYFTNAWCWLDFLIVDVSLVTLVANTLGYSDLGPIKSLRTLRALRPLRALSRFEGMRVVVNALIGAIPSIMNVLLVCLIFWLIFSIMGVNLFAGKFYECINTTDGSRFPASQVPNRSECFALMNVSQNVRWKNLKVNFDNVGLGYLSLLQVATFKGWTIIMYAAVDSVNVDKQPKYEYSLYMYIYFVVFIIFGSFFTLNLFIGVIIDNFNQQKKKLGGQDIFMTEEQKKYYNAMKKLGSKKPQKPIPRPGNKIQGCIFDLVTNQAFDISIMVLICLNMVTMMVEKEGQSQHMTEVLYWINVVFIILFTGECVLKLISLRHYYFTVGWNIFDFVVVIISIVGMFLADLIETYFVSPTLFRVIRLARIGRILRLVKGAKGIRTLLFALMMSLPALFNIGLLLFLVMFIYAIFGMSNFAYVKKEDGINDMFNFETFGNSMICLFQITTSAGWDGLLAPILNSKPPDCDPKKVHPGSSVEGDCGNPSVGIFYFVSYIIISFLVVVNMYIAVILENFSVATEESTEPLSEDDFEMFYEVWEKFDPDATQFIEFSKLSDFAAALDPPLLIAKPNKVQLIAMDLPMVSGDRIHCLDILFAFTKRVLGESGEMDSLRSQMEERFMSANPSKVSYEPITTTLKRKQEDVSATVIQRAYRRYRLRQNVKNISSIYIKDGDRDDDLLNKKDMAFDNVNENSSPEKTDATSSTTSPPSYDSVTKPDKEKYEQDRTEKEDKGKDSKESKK
row,Structure (SMILES),IC50
1,COC(C)(C)COc1ccc(C(=O)N2CCC3(CC2)CN(CC(F)(F)F)CC(c2ccccc2)O3)cc1 (stereo not drawn) [Compound 60],< 2000 nM
2,CCS(=O)(=O)c1ccc(C(=O)N2CCC3(CC2)CN(CC(F)(F)F)CC(c2ccccc2)O3)cc1C (stereo not drawn) [Compound 62],< 2000 nM
3,Cc1ccc(C2CN(CC(F)F)CC3(CCN(C(=O)c4ccc(OC(C)C)c(C)c4)CC3)O2)cc1 (stereo not drawn) [Compound 63],2000 to 5000 nM
4,COCC1CN(Cc2cocn2)CC2(CCN(C(=O)c3ccc(OC(C)C)c(C)c3)CC2)O1 (stereo not drawn) [Compound 64],> 5000 nM
5,Cc1cc(C(=O)N2CCC3(CC2)CN(CC(F)F)CC(c2ccccn2)O3)ccc1S(=O)(=O)C(C)C (stereo not drawn) [Compound 65],> 5000 nM
6,COCC1CN(Cc2c(F)cccc2F)CC2(CCN(C(=O)c3ccc(OC(C)C)c(C)c3)CC2)O1 (stereo not drawn) [Compound 66],< 2000 nM
7,CCC1CN(c2ncccn2)CC2(CCN(C(=O)c3ccc(C4(O)CCCCC4)cc3)CC2)O1 (stereo not drawn) [Compound 67],< 2000 nM
8,Cc1cc(C(=O)N2CCC3(CC2)CN(CC#N)CC(c2ccccc2)O3)ccc1C(C)(C)O (stereo not drawn) [Compound 68],2000 to 5000 nM
9,COCC1CN(Cc2cncnc2)CC2(CCN(C(=O)c3ccc(OC(C)C)c(C)c3)CC2)O1 (stereo not drawn) [Compound 69],> 5000 nM
10,COCC1CN(c2ccc(C#N)cc2)CC2(CCN(C(=O)c3ccc(OC(C)C)c(C)c3)CC2)O1 (stereo not drawn) [Compound 70],< 2000 nM
11,COc1cc(F)cc(C(=O)N2CCC3(CC2)CN(CC(F)(F)F)CC(c2ccccc2)O3)c1 (stereo not drawn) [Compound 71],> 5000 nM
12,CCOc1cccc(C(=O)N2CCC3(CC2)CN(c2ncccn2)CC(COC)O3)c1 (stereo not drawn) [Compound 72],> 5000 nM
13,COCC1CN(C(C)C)CC2(CCN(C(=O)c3ccc(OC(C)C)c(C)c3)CC2)O1 (stereo not drawn) [Compound 73],< 2000 nM
14,COCC1CN(c2cccc(OC)c2)CC2(CCN(C(=O)c3ccc(OC(C)C)c(C)c3)CC2)O1 (stereo not drawn) [Compound 74],< 2000 nM
15,COCC1CN(c2ccc(C)cn2)CC2(CCN(C(=O)c3ccc(OC(C)C)c(C)c3)CC2)O1 (stereo not drawn) [Compound 75],< 2000 nM
16,CCN1CC(c2ncc(C)s2)OC2(CCN(C(=O)c3ccc(OC(C)C)c(OC)c3)CC2)C1 (stereo not drawn) [Compound 76],2000 to 5000 nM
17,CC(C)Oc1ccc(C(=O)N2CCC3(CC2)CN(CC(F)F)CC(c2ccccc2)O3)cc1F (stereo not drawn) [Compound 77],< 2000 nM
18,Cc1cc(C(=O)N2CCC3(CC2)CN(CC(F)(F)F)CC(c2ccccc2)O3)ccc1N1CCOCC1 (stereo not drawn) [Compound 78],< 2000 nM
19,COCC1CN(c2ncccc2OC)CC2(CCN(C(=O)c3ccc(OC(C)C)c(C)c3)CC2)O1 (stereo not drawn) [Compound 79],< 2000 nM

row,Structure (SMILES),IC50
1,Cc1cccc(C2CN(CC(F)F)CC3(CCN(C(=O)c4ccc(C(C)(C)O)c(F)c4)CC3)O2)n1 (stereo not drawn) [Compound 80],> 5000 nM
2,Cc1cc(C(=O)N2CCC3(CC2)CN(CC(F)F)CC(c2ccc(F)cc2)O3)ccc1OCCCO (stereo not drawn) [Compound 81],> 5000 nM
3,Cc1cc(C(=O)N2CCC3(CC2)CN(Cc2ccccc2)CC(CO)O3)ccc1OC(C)C (stereo not drawn) [Compound 82],2000 to 5000 nM
4,Cc1cnc(C2CN(Cc3ccccc3)CC3(CCN(C(=O)c4ccc(OC(C)C)c(C)c4)CC3)O2)o1 (stereo not drawn) [Compound 83],< 2000 nM
5,CC(C)Oc1ccc(C(=O)N2CCC3(CC2)CN(CC(F)F)CC(c2ccnn2C)O3)cc1F (stereo not drawn) [Compound 84],> 5000 nM
6,CC(C)Oc1ccc(C(=O)N2CCC3(CC2)CN(CC(F)F)CC(c2ccccc2)O3)cc1Cl (stereo not drawn) [Compound 86],< 2000 nM
7,Cc1cc(C2CN(CC(F)(F)F)CC3(CCN(C(=O)c4ccc(OC(C)C)c(F)c4)CC3)O2)n[nH]1 (stereo not drawn) [Compound 87],2000 to 5000 nM
8,Cc1cc(C(=O)N2CCC3(CC2)CN(CC(F)F)CC(c2ncc(C(C)C)o2)O3)ccc1OC(C)C (stereo not drawn) [Compound 88],< 2000 nM
9,CCC#CCN1CC(COC)OC2(CCN(C(=O)c3ccc(OC(C)C)c(C)c3)CC2)C1 (stereo not drawn) [Compound 89],< 2000 nM
10,O=C(c1ccccc1OC(F)F)N1CCC2(CC1)CN(CC(F)(F)F)CC(c1ccccc1)O2 (stereo not drawn) [Compound 90],> 5000 nM
11,CCC1CN(c2ncccn2)CC2(CCN(C(=O)c3ccc(C4(O)CCC4)c(C)c3)CC2)O1 (stereo not drawn) [Compound 91],< 2000 nM
12,Cc1cc(C(=O)N2CCC3(CC2)CN(c2ncccn2)CC(CO)O3)ccc1OC(C)C (stereo not drawn) [Compound 92],> 5000 nM
13,COCC1CN(c2ncccn2)CC2(CCN(C(=O)c3ccc(C4(O)CCC4)c(C)c3)CC2)O1 (stereo not drawn) [Compound 93],< 2000 nM
14,CC(C)Oc1ccc(C(=O)N2CCC3(CC2)CN(CC(F)(F)F)CC(c2ccccc2)O3)cc1F (stereo not drawn) [Compound 94],< 2000 nM
15,COCC1CN(c2ccnc(C)c2)CC2(CCN(C(=O)c3ccc(OC(C)C)c(C)c3)CC2)O1 (stereo not drawn) [Compound 95],> 5000 nM
16,O=C(c1ccc(S(=O)(=O)C2CCOC2)cc1)N1CCC2(CC1)CN(CC(F)F)CC(c1ccc(F)cc1)O2 (stereo not drawn) [Compound 96],> 5000 nM
17,CCC1CN(c2ccccn2)CC2(CCN(C(=O)c3ccc(C(C)(C)O)c(C)c3)CC2)O1 (stereo not drawn) [Compound 97],< 2000 nM
18,Cc1cc(C(=O)N2CCC3(CC2)CN(CC(F)(F)F)CC(c2ccccc2)O3)ccc1C(C)(C)O (stereo not drawn) [Compound 98],< 2000 nM
19,O=C(c1ccc(S(=O)(=O)NC2CC2)cc1)N1CCC2(CC1)CN(CC(F)(F)F)CC(c1ccccc1)O2 (stereo not drawn) [Compound 99],< 2000 nM

row,Structure (SMILES),IC50
1,COc1cc(C(=O)N2CCC3(CC2)CN(CC(F)F)C(c2ccccc2)CO3)ccc1OC(C)C (stereo not drawn) [Compound 100],< 2000 nM
2,CCCCN1CC(COC)OC2(CCN(C(=O)c3ccc(OC(C)C)c(C)c3)CC2)C1 (stereo not drawn) [Compound 101],< 2000 nM
3,COCC1CN(Cc2ccccc2F)CC2(CCN(C(=O)c3ccc(OC(C)C)c(C)c3)CC2)O1 (stereo not drawn) [Compound 102],< 2000 nM
4,CCC1CN(c2ccccn2)CC2(CCN(C(=O)c3ccc(C4(O)CCCC4)c(C)c3)CC2)O1 (stereo not drawn) [Compound 103],< 2000 nM
5,COc1cc(C(=O)N2CCC3(CC2)CN(CC(F)(F)F)C(c2ccccc2)CO3)ccc1OC(C)C (stereo not drawn) [Compound 104],< 2000 nM
6,CC(C)(O)c1ccc(C(=O)N2CCC3(CC2)CN(CC(F)(F)F)CC(c2ccccc2)O3)cc1 (stereo not drawn) [Compound 105],< 2000 nM
7,Cc1nc(C(=O)N2CCC3(CC2)CN(CC(F)(F)F)CC(c2ccccc2)O3)ccc1C#N (stereo not drawn) [Compound 106],> 5000 nM
8,CCCOCCN1CC(COC)OC2(CCN(C(=O)c3ccc(OC(C)C)c(C)c3)CC2)C1 (stereo not drawn) [Compound 107],< 2000 nM
9,Cc1cc(S(C)(=O)=O)ccc1C(=O)N1CCC2(CC1)CN(CC(F)(F)F)CC(c1ccccc1)O2 (stereo not drawn) [Compound 108],> 5000 nM
10,CC(C)CS(=O)(=O)c1ccc(C(=O)N2CCC3(CC2)CN(CC(F)F)CC(c2ccc(F)cc2)O3)cc1 (stereo not drawn) [Compound 109],2000 to 5000 nM
11,CC(C)Oc1ccc(C(=O)N2CCC3(CC2)CN(CC(F)(F)F)CC(c2cc[nH]n2)O3)cc1Cl (stereo not drawn) [Compound 110],< 2000 nM
12,COCC1CN(CC(C)C)CC2(CCN(C(=O)c3ccc(OC(C)C)c(C)c3)CC2)O1 (stereo not drawn) [Compound 111],< 2000 nM
13,CCC(CC)CN1CC(COC)OC2(CCN(C(=O)c3ccc(OC(C)C)c(C)c3)CC2)C1 (stereo not drawn) [Compound 112],< 2000 nM
14,COCC1CN(CC(C)=O)CC2(CCN(C(=O)c3ccc(OC(C)C)c(C)c3)CC2)O1 (stereo not drawn) [Compound 113],> 5000 nM
15,Cc1cc(C(=O)N2CCC3(CC2)CN(c2ncccn2)CC(COC(C)C)O3)ccc1OC(C)C (stereo not drawn) [Compound 114],< 2000 nM
16,COc1cc(C(=O)N2CCC3(CC2)CN(CC#N)CC(c2ccccc2)O3)ccc1C(C)(C)O (stereo not drawn) [Compound 115],2000 to 5000 nM
17,Cc1nc2cccc(C(=O)N3CCC4(CC3)CN(CC(F)(F)F)CC(c3ccccc3)O4)c2o1 (stereo not drawn) [Compound 116],< 2000 nM
18,Cc1cc(C(=O)N2CCC3(CC2)CN(CC(F)(F)F)CC(c2ccccc2)O3)ccc1OCCCO (stereo not drawn) [Compound 117],< 2000 nM
19,O=C(c1cc(Cl)cc(Cl)c1)N1CCC2(CC1)CN(CC(F)(F)F)CC(c1ccccc1)O2 (stereo not drawn) [Compound 118],> 5000 nM
